Measured values published in PubChem BioAssay (NCI).
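Dose response: 5 concentrations. Exposure: 48 h. Format: 96-well plates. Endpoint: linear interpolation; highest concentration if not reached. GI50 = concentration required for 50% inhibition of growth. TGI denotes the concentration required for complete inhibition of growth.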

What was measured:
Experiment in all cases: NCI anticancer screen, dose series, 48 h
EKVX NSCLC = system: EKVX NSCLC
HOP-62 NSCLC = system: HOP-62 NSCLC
HS 578T breast = system: HS 578T breast
HT29 colon = system: HT29 colon
IGROV1 ovarian = system: IGROV1 ovarian
MCF7 breast = system: MCF7 breast
MOLT-4 leukemia = system: MOLT-4 leukemia
PC-3 prostate = system: PC-3 prostate
SR leukemia = system: SR leukemia
UACC-62 melanoma = system: UACC-62 melanoma

| Structure (SMILES) | GI50 (EKVX NSCLC) [µM] | TGI (EKVX NSCLC) [µM] | GI50 (HOP-62 NSCLC) [µM] | TGI (HOP-62 NSCLC) [µM] | GI50 (HS 578T breast) [µM] | TGI (HS 578T breast) [µM] | GI50 (HT29 colon) [µM] | TGI (HT29 colon) [µM] | GI50 (IGROV1 ovarian) [µM] | TGI (IGROV1 ovarian) [µM] | GI50 (MCF7 breast) [µM] | TGI (MCF7 breast) [µM] | GI50 (MOLT-4 leukemia) [µM] | TGI (MOLT-4 leukemia) [µM] | GI50 (PC-3 prostate) [µM] | TGI (PC-3 prostate) [µM] | GI50 (SR leukemia) [µM] | TGI (SR leukemia) [µM] | GI50 (UACC-62 melanoma) [µM] | TGI (UACC-62 melanoma) [µM] |
| --- | --- | --- | --- | --- | --- | --- | --- | --- | --- | --- | --- | --- | --- | --- | --- | --- | --- | --- | --- | --- |
| O=C1NC(=O)C(=Cc2cn(Cc3ccccc3)c3ccccc23)C(=O)N1 | 21.3 | > 63.5 | 15.2 | 37.7 | 8.71 | 29.3 | 23.5 | > 60.8 | 0.489 | 10.5 | 6.54 | 23 | 12.9 | 32.9 | 11.4 | 30.8 | 10.6 | 30.5 | 2.07 | 15.7 |
| O=c1cc(-c2ccccc2)[nH]c2c1CCCC2 | 5.6 | > 100 | 4.51 | > 100 | 2.01 | 8.56 | 2 | > 100 | 3.59 | > 100 | 1.14 | > 100 | 6.16 | > 100 | 3.18 | > 100 | 0.835 | > 100 | 5.91 | > 100 |
| CN1CCN(CCCOc2ccc3nc(Nc4ccc(F)c(F)c4)ccc3c2)CC1 | 3.17 | 13.1 | 1.86 | 3.88 | 1.82 | 5.43 | 0.822 | 2.32 | 3.11 | 9.01 | 1.66 | 3.53 | 2.37 | 7.76 | 1.72 | 3.72 | 1.71 | 6.95 |  |  |
| CN1CCN(Cc2ccc(NC(=O)c3[nH]ncc3Nc3ncnc4[nH]ccc34)cc2)CC1 | 0.368 | 2.64 | 0.348 | 3.44 | 0.197 | 0.98 |  |  | 0.436 | 10.7 | 0.118 | 29.1 | 0.142 | 0.598 | 0.372 | > 100 | 0.229 | 0.708 | 0.411 | 1.82 |
| C=C(C)[C@@H]1CCc2c(O)c(O)c(=O)cc(C)c2C1 |  | > 100 |  |  |  | > 100 |  | > 100 |  | > 100 |  | 20.7 |  | > 25.2 |  | > 100 |  | > 20.3 |  | 48.3 |
| CC1CCCC(C#N)(NOC2=NCCN2)C1 (configuration not stated) | 0.0758 | 28.2 |  |  | 52.3 | > 100 | 92.2 | > 100 | 30.4 | > 100 | 42.2 | > 100 | 10.7 | > 100 | > 100 | > 100 | 7.87 | > 100 | 26.4 | 94.8 |
| CCOC(=O)c1c(-c2ccccc2)[n+](=O)c2cc(F)c(F)cc2n1[O-] | 1.73 | 3.47 | 1.42 | 3.24 | 2.38 | 6.26 | 1.51 | 3.27 | 0.701 | > 100 | 2.76 | 10.5 | 0.415 | > 100 | 1.65 | 3.16 | 0.187 | > 100 |  |  |
| Nc1c(C(=O)c2cccc(C(O)CO)c2)cnn1-c1ccc(F)cc1 (configuration not stated) |  |  | > 25 | > 25 | > 25 | > 25 | > 25 | > 25 | > 25 | > 25 | > 25 | > 25 | > 25 | > 25 | > 25 | > 25 | > 25 | > 25 | > 25 | > 25 |
| FC(F)c1ncc(-c2ccc(C(F)(F)F)cc2)c(NC2CCCCCC2)n1 |  |  | > 10 | > 10 | > 10 | > 10 | > 10 | > 10 | > 10 | > 10 | > 10 | > 10 | > 10 | > 10 | > 10 | > 10 | > 10 | > 10 | > 10 | > 10 |
| Cc1cc(=O)[nH]c(N/N=C/c2ccccc2O)n1 |  |  | 19 | > 100 | > 100 | > 100 | 5.72 | > 100 | 3.77 | > 100 | 0.463 | > 100 | 4.95 | > 100 | 4.95 | > 100 | 6.22 | > 100 | 9.92 | 51 |
| CC(C)[P+](c1ccccc1)(c1ccccc1)c1ccccc1 |  |  | 19 | > 100 | 13.4 | > 100 | 5.8 | > 100 | 14.3 | > 100 | 3.69 | > 100 | 6.9 | > 100 | 2.42 | 34.6 | 3.05 | > 100 | 4.2 | > 100 |
| COC(=O)c1onc(C2OC(C)(C)OC2C(O)COC(c2ccccc2)(c2ccccc2)c2ccccc2)c1C(=O)OC (configuration not stated) |  | > 100 |  | > 100 |  | > 100 |  | > 100 |  |  |  | > 100 |  | > 100 |  | > 100 |  | > 100 |  | > 100 |
